Data reported in PubChem BioAssay (NCI).
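Step 1: Grow cells in 96-well plates. Step 2: Expose to compound for 48 hours at 5 concentrations. Step 3: Interpolate endpoints linearly; if unreached, use highest concentration. The concentration for 50% growth inhibition is given as GI50. TGI is the concentration that stops growth completely.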

Assays:
Assay in all cases: NCI-60 cell line screen, 48 h
[1] = tested on: SK-MEL-2 melanoma
[2] = tested on: NCI-H226 lung
[3] = tested on: HOP-62 NSCLC
[4] = tested on: SN12C renal
[5] = tested on: HT29 colon
[6] = tested on: LOX IMVI melanoma
[7] = tested on: SF-539 CNS
[8] = tested on: 786-0 renal
[9] = tested on: MDA-MB-435
[10] = tested on: MCF7 breast

Row | Structure (SMILES) | TGI [1] | TGI [2] | TGI [3] | TGI [4] | TGI [5] | TGI [6] | TGI [7] | TGI [8] | TGI [9] | TGI [10] | GI50 [1] | GI50 [2] | GI50 [3] | GI50 [4] | GI50 [5] | GI50 [6] | GI50 [9] | GI50 [10] | GI50 [8] | GI50 [7]
1 | CC(C)=Cc1cc(C(=O)Nc2ccc(Cl)c(Cl)c2)nc(N)n1 | > 100 µM | > 100 µM | > 100 µM | > 100 µM | > 100 µM | > 100 µM | > 100 µM | > 100 µM | – | – | – | – | – | – | – | – | – | – | – | –
2 | C=C(Br)C(C)(Br)CCC(Br)C(C)(C)Cl (stereo not drawn) | 51.6 µM | 81.3 µM | 39.4 µM | 39.5 µM | 40.7 µM | – | 31.6 µM | 33.5 µM | 41.9 µM | 31.5 µM | – | – | – | – | – | – | – | – | – | –
3 | CC(C)[C@H]1COC(=O)N1[C@@H]1C(=O)N([C@@H](CCC(=O)N2CCN(C3CCCC3)CC2)C(=O)N[C@@H]2CCCc3ccccc32)[C@@H]1/C=C/c1cccc(Br)c1 | 3.3 µM | 15.6 µM | 4.96 µM | 5.51 µM | 2.77 µM | 1.55 µM | – | 4.69 µM | 2.65 µM | 6.33 µM | 1.69 µM | 3.49 µM | 1.82 µM | 2.27 µM | 1.3 µM | 0.376 µM | 1.26 µM | 2.09 µM | 2.01 µM | –
4 | O=S1(=O)OCCOS(=O)(=O)C1Br | > 100 µM | > 100 µM | > 100 µM | > 100 µM | > 100 µM | – | > 100 µM | > 100 µM | – | – | – | – | – | – | – | – | – | – | – | –
5 | CC(=O)/C(=C\c1cccc([N+](=O)[O-])c1)C(=O)Nc1ccccc1C | > 100 µM | > 100 µM | > 100 µM | > 100 µM | > 100 µM | > 100 µM | > 100 µM | > 100 µM | – | – | – | – | – | – | – | – | – | – | – | –
6 | CCOC(=O)NC(=O)c1cn(CCCO)c(=O)[nH]c1=O | > 100 µM | > 100 µM | > 100 µM | > 100 µM | > 100 µM | > 100 µM | > 100 µM | > 100 µM | – | – | – | – | – | – | – | – | – | – | – | –
7 | CCCCCCCCC/C=C1\CCC(CN2CCOCC2)C1=O (stereo not drawn) | 14.6 µM | 15.3 µM | 26.4 µM | 13 µM | 8.7 µM | 2.02 µM | 3.74 µM | 9.69 µM | 6.5 µM | – | – | – | – | – | – | – | – | – | – | –
8 | [Cl-].[La+3].[O-]/N=C(\c1ccccc1)c1ccccn1.[O-]/N=C(\c1ccccc1)c1ccccn1.[O-]/N=C(\c1ccccc1)c1ccccn1 | > 100 µM | 51.2 µM | > 93.9 µM | > 100 µM | > 100 µM | > 100 µM | > 85.7 µM | > 100 µM | – | – | 37.1 µM | 21.6 µM | 28.4 µM | 23.5 µM | 50.4 µM | 22.9 µM | – | – | 36 µM | 29.7 µM
9 | Clc1ccc(C(c2ccc(Cl)cc2)c2ccccn2)cc1 | 35 µM | 31.9 µM | – | 31.7 µM | 30.8 µM | 30.4 µM | 33.7 µM | 30.6 µM | – | – | – | – | – | – | – | – | – | – | – | –
10 | C#CC1(O)CCC2C3CCc4cc(Oc5nc(F)nc(-c6c7ccccc7c7sc8ccccc8n67)n5)ccc4C3CC[C@@]21C (stereo partly drawn) | > 100 µM | > 100 µM | > 100 µM | – | > 100 µM | – | > 100 µM | > 100 µM | – | – | – | – | – | – | – | – | – | – | – | –
11 | Cc1cc(-c2ccc3nc(C4CCOCC4)n(CCOC(F)(F)F)c3c2)cn(C)c1=O | 15.5 µM | 8.47 µM | – | 31.1 µM | > 63.1 µM | 1.06 µM | – | – | > 47.5 µM | – | 0.988 µM | – | – | 1.22 µM | – | – | 0.21 µM | 0.0586 µM | 1.03 µM | –
12 | Cc1ccc(NC(=O)c2cc3cc(N=Nc4ccccc4C(=O)O)ccc3oc2=O)cc1 | – | > 100 µM | > 100 µM | > 100 µM | > 100 µM | > 100 µM | 98.5 µM | > 100 µM | – | – | – | – | – | – | – | – | – | – | – | –
13 | CCCCCCN(CCCCCC)C(=O)Cc1c2n(c3ccccc13)Cc1ccccc1-2 | > 100 µM | > 100 µM | > 100 µM | > 100 µM | > 100 µM | > 100 µM | > 100 µM | > 100 µM | – | – | – | – | – | – | – | – | – | – | – | –
14 | CN(C)c1ccc(/C=C(\NC(=O)c2ccccc2)c2nc3ncncc3[nH]2)cc1 | > 100 µM | – | – | > 100 µM | > 100 µM | – | > 100 µM | > 100 µM | – | – | – | – | – | – | – | – | – | – | – | –
15 | COc1cc(C2c3cc4c(cc3OC(C)(O)C2C)OCO4)cc(OC)c1OC (stereo not drawn) | – | 13.5 µM | > 100 µM | > 100 µM | > 100 µM | > 100 µM | 0.888 µM | > 100 µM | > 100 µM | > 100 µM | – | – | – | – | – | – | – | – | – | –
16 | COC(OC)C(C)CC(=O)N(C)C (stereo not drawn) | > 100 µM | > 100 µM | > 100 µM | > 100 µM | > 100 µM | > 100 µM | > 100 µM | > 100 µM | – | – | – | – | – | – | – | – | – | – | – | –
17 | C[Si](C)(C)C1(Sc2ccccc2)SCCCS1 | > 100 µM | – | 76.4 µM | > 100 µM | > 100 µM | > 100 µM | 75.2 µM | > 100 µM | – | – | – | – | – | – | – | – | – | – | – | –
18 | C=C1NC(=O)C(C(C)CC)NC(=O)C2CSCC(NC(=O)CCC(=O)O)C(=O)NC(Cc3ccccc3)C(=O)NC(C)C(=O)NC(CC(C)CC)C(=O)NC(C(=O)NC(Cc3ccccc3)C(=O)N3CCCC3C(=O)N2)C(C)OC(=O)C(CO)NC(=O)C(C(O)COC)N(C)C(=O)C(C(C)C)NC(=O)C(CC(C)CC)NC1=O (stereo not drawn) | > 6 µM | > 6 µM | > 6 µM | > 6 µM | > 6 µM | > 6 µM | 0.279 µM | > 6 µM | – | > 6 µM | 0.00485 µM | 0.117 µM | 0.0198 µM | 0.0707 µM | 0.0165 µM | 0.0304 µM | – | 0.0124 µM | 0.0358 µM | 0.00868 µM
19 | C=C1C(=O)O[C@H]2[C@H]1CC/C(COC(=O)c1c[nH]c3ccccc13)=C\CC[C@@]1(C)O[C@@H]21 | 0.612 µM | 1.96 µM | 2.41 µM | 0.623 µM | 0.58 µM | 0.312 µM | 1 µM | 1.13 µM | 0.654 µM | – | 0.239 µM | 0.445 µM | 0.825 µM | 0.237 µM | 0.249 µM | 0.0471 µM | 0.242 µM | – | 0.326 µM | 0.264 µM
20 | O=C(/C=C\c1ccc(Cl)c(Cl)c1)c1ccc(Cl)cc1Cl | 41.9 µM | 21.2 µM | > 100 µM | > 100 µM | 34.2 µM | 18.2 µM | 37.7 µM | 39.6 µM | – | – | – | 6.39 µM | > 100 µM | – | – | 2.05 µM | – | – | – | –
